# Tests used:
# [1] = system: pro-inflammatory cytokines and chemokines, including IL-18; assay: Cytokines and chemokines in the serum of treated animals; assay type: in vivo, mice; settings: serum of animals treated with talabostat mesylate alone; data not shown
# Protocol: Various cytokines and chemokines in the serum of animals treated with talabostat mesylate alone was also evaluated. […] IL-18 bridges the innate and adaptive immune systems through induction of IFNγ and OX40 (CD134) signaling pathway (Maxwell et al., Journal of Immunology, 2006, 177:234).
# MC38 cells = assay: MC38 mouse model of colon adenocarcinoma: tumor volume and survival; assay type: in vivo; settings: MC38 tumor-bearing C57BL/6 mice
# Protocol: Animals: Six to ten week-old female C57BL/6 mice were used in the studies as supplied by Beijing Vital River Laboratory Animal Technology Co., Ltd. Mice received food and water ad libitum. All animals were maintained in a controlled environment with 20-26° C. temperature, 40-70% humidity, and a light/dark cycle of 12 hours each. Up to 5 mice were kept in each cage. The study protocol and procedures involving the care and use of animals were reviewed and approved by the Institutional Animal Care and Use Committee (IACUC) to ensure compliance with the regulations of the Association for Assessment and Accreditation of Laboratory Animal Care (AAALAC).
# Reagents and Antibodies: Anti-mouse PD-1 antibody (BioXcell; Lot No./Cat. No./clone: 665418F1/BP0146/RMP1-14) was supplied at a concentration of 7.83 mg/mL and maintained at 4° C. […]
# Tumor volumes were measured on Day 10, Day 14, Day 17, Day 21, Day 23, Day 25, Day 28, Day 30, Day 32, Day 35, Day 37, Day 39, Day 42, Day 44, Day 46, Day 49 and Day 51 in two dimensions using a caliper, and the volume was expressed in mm^3 using the formula: V=0.5 a×b^2 where a and b are the length and width of the tumor, respectively.
# Statistical Analysis: Data related to tumor volume are presented as mean and the standard error of the mean (SEM). […] Percentage tumor reduction was assessed on Day 23 by using the below formula: […]
substance,measurement,setting,value
talabostat mesylate,"pro-inflammatory cytokines and chemokines in serum, including IL-18",[1],stimulated
same,median survival,"MC38 cells; same dosing as Table 4, vehicle control median survival 30 days",35 days
same,% Tumor Reduction compared to vehicle control on Day 23,"MC38 cells; talabostat mesylate 20 μg/mouse p.o. QD, anti-OX40 Ab 10 mg/kg i.p. twice weekly, anti-PD-1 Ab 5 mg/kg i.p. twice weekly, treatment from Day 11, Day 23",8.16%
